Source: US10485236B2, “Triazole derivatives, intermediates thereof and their use as fungicides” (Bayer CropScience Aktiengesellschaft, priority 2015, dated 2019)
Marks after values point to notes of the source that are not given here.

Experiment: Measurement of LogP values by HPLC on reversed phase columns (EEC directive 79/831 Annex V.A8)
Assay type: physicochemical
Details: not given
Protocol: [table] If more than one Log P value is available within the same method, all the values are given and separated by “+”. Calibration was done with straight-chain alkan2-ones (with 3 to 16 carbon atoms) with known Log P values (measurement of Log P values using retention times with linear interpolation between successive alkanones). Lambda-max-values were determined using UV-spectra from 200 nm to 400 nm and the peak values of the chromatographic signals.

Which LogP does the source give for `OC(Cn1cncn1)c1ccc(Oc2ccc(S(F)(F)(F)(F)F)cc2)nc1C(F)(F)F` (stereo not drawn) [I.60] here?
Its LogP is 3.08^[a].

With `O=C(CCl)c1ccc(Oc2ccc(C(F)(F)F)cc2)nc1C(F)(F)F` [VI.28] as the molecule, how does the LogP read?
Its LogP is 4.19^[a].

Which LogP does the source give for `O=C(CCl)c1ccc(Oc2ccc(Cl)cc2)nc1OC(F)(F)F` [VI.12] here?
The LogP was 4.51^[a].

With `Cc1cc(Cl)ccc1Oc1ccc(C(=O)Cn2cncn2)c(Cl)n1` [VII.10] as the molecule, how does the LogP read?
The LogP was 2.94^[a].

For `OC(Cn1cncn1)(c1ccc(Oc2ccc(C(F)F)cc2)nc1C(F)(F)F)C1CC1` (stereo not drawn) [I.93], which LogP is on record?
Its LogP is 3.13^[a].

For `O=C(CCl)c1ccc(Oc2ccc(C(F)F)cc2)nc1Cl` [VI.16], which LogP is on record?
Its LogP is 3.42^[a].

With `O=C(Cn1cncn1)c1cnc(Oc2ccc(C(F)(F)F)cc2)cc1C(F)(F)F` [VII.28] as the molecule, how does the LogP read?
The LogP was 3.17^[a].

For `OC(Cn1cncn1)c1ccc(Oc2ccc(Cl)cc2Cl)nc1Cl` (racemic) [I.23], which LogP is on record?
The LogP was 2.75^[a].

With `O=C(Cn1cncn1)c1cnc(Oc2ccc(Br)cc2)cc1C(F)F` [VII.41] as the molecule, how does the LogP read?
The LogP was 2.61^[a].

For `O=C(Cn1cncn1)c1ccc(Oc2ccc(Cl)cc2)nc1OC(F)(F)F` [VII.18], which LogP is on record?
The LogP was 3.23^[a].

Which LogP does the source give for `CC(=O)c1cnc(Oc2ccc(C(F)(F)F)cc2)cc1C(F)(F)F` [V.25] here?
The LogP was 4.04^[a].

With `O=C(CCl)c1ccc(Oc2ccc(Cl)cc2)nc1Cl` [VI.04] as the molecule, how does the LogP read?
Its LogP is 3.72^[a].

Which LogP does the source give for `CC(O)(Cn1cncn1)c1ccc(Oc2ccc(Br)cc2)nc1C(F)(F)F` (single isomer, unassigned) [I.101] here?
Its LogP is 2.94^[a].

Which LogP does the source give for `OC(Cn1cncn1)c1ccc(Oc2ccc(Cl)cc2F)nc1C(F)(F)F` (stereo not drawn) [I.90] here?
Its LogP is 2.88^[a].

For `CC(=O)c1ccc(Oc2ccc(OC(F)(F)F)cc2)nc1C(F)(F)F` [V.35], which LogP is on record?
Its LogP is 4.04^[a].

Which LogP does the source give for `O=C(Cn1cncn1)c1cnc(Oc2ccc(Br)cc2)cc1C(F)(F)F` [VII.27] here?
Its LogP is 3.02^[a].

For `CC(O)(Cn1cncn1)c1ccc(Oc2ccc(C(F)(F)F)cc2)nc1C(F)(F)F` (stereo not drawn) [I.65], which LogP is on record?
Its LogP is 3.04^[a].

Which LogP does the source give for `O=C(CCl)c1cnc(Oc2ccc(C(F)(F)F)cc2)cc1C(F)(F)F` [VI.22] here?
The LogP was 4.21^[a].

With `O=C(Cn1cncn1)c1ccc(Oc2ccc(OC(F)(F)F)cc2)nc1C(F)(F)F` [VII.39] as the molecule, how does the LogP read?
The LogP was 2.95^[a].

With `CC(=O)c1ccc(Oc2ccc(C(=O)Cn3cncn3)c(Cl)n2)cc1` [VII.17] as the molecule, how does the LogP read?
The LogP was 1.96^[a].

Which LogP does the source give for `OC(Cn1cncn1)c1ccc(Oc2ccc(C(F)F)cc2)nc1C(F)(F)F` (stereo not drawn) [I.74] here?
Its LogP is 2.49^[a].

Which LogP does the source give for `FC(F)(F)c1nc(Oc2ccc(S(F)(F)(F)(F)F)cc2)ccc1C1(C2CC2)CO1` (stereo not drawn) [IX.09] here?
Its LogP is 5.22^[a].

With `O=C(Cn1cncn1)c1ncc(Oc2ccccc2)cc1Cl` [VII.07] as the molecule, how does the LogP read?
Its LogP is 2.45^[a].

With `CC(O)(Cn1cncn1)c1cnc(Oc2ccc(S(F)(F)(F)(F)F)cc2)cc1C(F)(F)F` (stereo not drawn) [I.37] as the molecule, how does the LogP read?
Its LogP is 3.33^[a].

With `O=C(Cn1cncn1)c1ccc(Oc2ccc(Cl)cc2Cl)nc1Cl` [VII.16] as the molecule, how does the LogP read?
Its LogP is 3.02^[a].

Which LogP does the source give for `OC(Cn1cncn1)c1ccc(Oc2ccc(Cl)cc2F)nc1C(F)(F)F` (stereo not drawn) [I.70] here?
Its LogP is 2.78^[a].

Which LogP does the source give for `Cc1cc(Cl)ccc1Oc1ccc(C(O)Cn2cncn2)c(Cl)n1` (racemic) [I.15] here?
Its LogP is 2.75^[a].

With `CC(C)CC(=O)c1ccc(Oc2ccc(Cl)cc2)nc1C(F)(F)F` [V.47] as the molecule, how does the LogP read?
The LogP was 4.98^[a].

For `CC(=O)c1ccc(Oc2ccc(Cl)cc2)nn1` [V.13], which LogP is on record?
The LogP was 2.73^[a].

For `OC(Cn1cncn1)c1ccc(Oc2ccccc2)nc1Cl` (racemic) [I.13], which LogP is on record?
Its LogP is 1.98^[a].

With `CCCCC(=O)c1ccc(Oc2ccc(Cl)cc2)nc1C(F)(F)F` [V.48] as the molecule, how does the LogP read?
The LogP was 5.03^[a].

Which LogP does the source give for `CC(=O)c1cnc(Oc2ccc(Br)cc2)cc1C(F)(F)F` [V.27] here?
The LogP was 3.99^[a].

With `OC(Cn1cncn1)c1ccc(Oc2ccc(Br)cc2)nc1C(F)(F)F` (stereo not drawn) [I.40] as the molecule, how does the LogP read?
Its LogP is 2.82^[a].

Which LogP does the source give for `O=C(c1ccc(Oc2ccc(S(F)(F)(F)(F)F)cc2)nc1C(F)(F)F)C1CC1` [V.43] here?
Its LogP is 4.67^[a].

With `OC(Cn1cncn1)(c1ccc(Oc2ccc(Br)cc2)nc1C(F)(F)F)C(F)(F)F` (stereo not drawn) [I.85] as the molecule, how does the LogP read?
Its LogP is 3.48^[a].

Same assay, conditions: reversed phase HPLC column, method [a]: LC-UV, acidic range, 0.1% formic acid in water and acetonitrile as eluent

With `CC(=O)c1ccc(Oc2ccc(Cl)cc2)nc1C(F)(F)F` [V.01, 1-[6-(4-chlorophenoxy)-2-(trifluoromethyl)-3-pyridyl]ethanone] as the molecule, how does the chromatographic logP read?
The chromatographic logP was 3.8.
